Data as given in patent US6930075B1, “Fatty acid-based herbicidal composition” (priority 1990, dated 2005).

Experiments:
Test in all cases: Greenhouse post-emergence spray, plant damage rating
Type in all cases: in vivo
[1] = test system: Hypochoeris radicata (false dandelion); details: H. radicata, alone and combined
Procedure: (§1) Three species of weed, used in each test: Hypochoeris radicata (false dandelion), Sinapis, arvensis (wild mustard), and Avena sativa (oats), were grown in a greenhouse facility in 5.5 cm square pots using a potting soil mix comprising peat, vermiculite, sand, and 4-10-10 fertilizer. Water-soluble 20-20-20 fertilizer was used as a supplement for the plants as required. The plants were selected for use based on uniformity and quality and were potted separately. One plant per pot each of H. radicata (6–10 leaves) and S. arvensis (4–6 leaves) were used. Six to eight plants of A. sativa (2–4 leaves) were used per pot. After spraying with a herbicidal composition (as described below) the pots were arranged in a randomized complete block design in sub-irrigated watering trays. Six to ten replicates (pots) were used per treatment.
(§2) Herbicidal treatments were applied using a spray chamber fitted with a TeeJet 8006E flat fan nozzle (available from Spraying Systems Co., Wheaton, Ill.), calibrated to spray at a volume of 60 gpa at 40 psi. Treatment solutions were freshly prepared for each experiment. Plant damage was assessed at 10 to 14 days after treatment using a pre-transformed 0–10 rating scale (0 representing no damage, 10 representing plant death) in accordance with the procedure outlined in Statistical Methods in Agricultural Research, Little, T. M. et al, J. Wiley and Sons, 1975, pp. 119–120, 218.

[2] = test system: Sinapis arvensis (wild mustard); details: S. arvensis, alone and combined
Procedure: as §1, §2

Avena sativa (oats) = details: A. sativa, alone and combined
Procedure: as §1, §2

[3] = Table 3 set 1: Round-Up 0.1%, Potassium pelargonate 0.1%
[4] = Table 3 set 2: Round-Up 0.1%, Potassium pelargonate 0.5%
[5] = Table 3 set 3: Round-Up 0.1%, Potassium pelargonate 0.5% (so in the source)

CCCCCCCCC(=O)[O-].[K+] [Potassium pelargonate]
Phytotoxicity (%) Observed [1, 3]: 0%
Phytotoxicity (%) Observed [1, 4]: 0%
Phytotoxicity (%) Observed [1, 5]: 3%
Phytotoxicity (%) Observed [2, 3]: 0%
Phytotoxicity (%) Observed [2, 4]: 0%
Phytotoxicity (%) Observed [2, 5]: 2%
Phytotoxicity (%) Observed (Avena sativa (oats); [3]): 6%
Phytotoxicity (%) Observed (Avena sativa (oats); [4]): 5%
Phytotoxicity (%) Observed (Avena sativa (oats); [5]): 7%
